Broadly, the IC50 is the midpoint of a concentration-inhibition curve.

For test [1], the target named is T1, Human immunodeficiency virus type 1 integrase (Human immunodeficiency virus 1, UniProt Q7ZJM1). The test is described as follows: Inhibition of HIV1 integrase strand transfer activity.
The target of test [2] is T1, Human immunodeficiency virus type 1 integrase. The test is described as follows: Inhibition of HIV1 integrase 3'-end processing activity.
For test [3] the target is unchanged. The test is described as follows: Inhibition of HIV1 integrase 3'-end processing activity in presence of magnesium cofactor.
Test [4] shares this target. Description: Inhibition of HIV1 integrase strand transfer activity in presence of magnesium cofactor.

Some results are limits rather than exact numbers.

T1 sequence (Q7ZJM1 whole entry): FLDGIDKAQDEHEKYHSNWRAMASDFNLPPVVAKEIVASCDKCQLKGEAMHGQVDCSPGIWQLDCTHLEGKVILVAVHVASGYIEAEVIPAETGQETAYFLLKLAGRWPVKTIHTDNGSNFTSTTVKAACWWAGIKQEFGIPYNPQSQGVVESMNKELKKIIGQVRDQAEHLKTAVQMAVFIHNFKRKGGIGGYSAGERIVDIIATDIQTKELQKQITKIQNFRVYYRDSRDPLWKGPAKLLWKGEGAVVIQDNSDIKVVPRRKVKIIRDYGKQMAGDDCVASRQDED

With `CCOc1ccc(-c2c(C#N)c(N)nc(SCC(=O)c3cc4cc(Br)cc(Br)c4oc3=O)c2C#N)cc1`, the IC50 was found to be 4 µM in test [1], 6 µM in test [2], 17 µM in test [3] and 9.6 µM in test [4].
Consider `Nc1ccc(C(=O)CC(=O)Nc2cc(C(=O)O)cc(C(=O)O)c2)cc1`, for which the values for the IC50 in test [1] and in test [2] were 43 µM and 41 µM, respectively.
With `CCn1c(=O)c(C(=O)NNC(=O)c2cccc([N+](=O)[O-])c2)c(O)c2ccccc21`, the IC50 stood at 17 µM in test [1] and 37 µM in test [2].
As for `COc1cccc(C(=O)NNC(=O)c2ccc3ccccc3c2O)c1`, the figures for the 50% inhibitory concentration (IC50) in test [1] and in test [2] were 33 µM and 42 µM, respectively.
The like results for `Oc1ccc(Br)cc1/C=N/Nc1nc2nonc2nc1Nc1ccc(F)cc1` were, in that order, 11 µM and 16 µM.
For `CCn1c(=O)c(C(=O)NNC(=O)c2ccccc2[N+](=O)[O-])c(O)c2ccccc21`, the results for the IC50 in test [1] and in test [2] were 30 µM and 36 µM, respectively.
Regarding `O=C(/C=C/c1ccc2c(c1)OCO2)c1ccccc1O`, the IC50 in test [1] and in test [2] was more than 100 µM throughout.
As to `O=[N+]([O-])c1cc(Br)cc(/C=N/Nc2nc(Nc3ccccc3)nc(Nc3ccccc3)n2)c1O`, the results for the IC50 in test [1] and in test [2] were 0.6 µM and 1.9 µM, respectively.
Turning to `O=C(NC1CCCCC1)C(c1ccco1)N(C(=O)Cn1nnc2ccccc21)c1ccc(S(=O)(=O)NCC2CCCO2)cc1` (stereo unspecified), the half-inhibitory concentration (IC50) in test [1] and in test [2] was more than 100 µM in each case.
In the case of `Cc1ccc(O)c(/C=N/Nc2nc3c(c(=O)[nH]c(=O)n3C)n2Cc2ccccc2)c1`, the IC50 in test [1] and in test [2] was more than 100 µM in each case.
With `O=C1Nc2ccccc2/C1=N\NC(=O)c1ccc(O)cc1O`, the IC50 was 36 µM in test [1] and more than 100 µM in test [2].
Turning to `COc1cc(OC)c(C(=O)/C=C/c2cccc([N+](=O)[O-])c2)cc1OC`, the IC50 in test [1] and in test [2] was more than 100 µM throughout.
